Where a SMILES comes first, the peptide text is derived from it. The star is where a group is joined. Cbz = O=C(OCc1ccccc1)*
Experiments:
USP7 [1] = target: T1, USP7 (Homo sapiens, UniProt Q93009); assay: Rescue of PU7-1-mediated USP7 degradation by pathway inhibitors in CAL33; type: cell-based; conditions: CAL33, 5 μM PU7-1; 5 μM MLN4924, 25 μM Chloroquine or 5 μM MG132 for 24 h
T1 construct: used to treat CAL33 cells that express high levels of USP7 protein; endogenous in cells; host or cells: CAL33 (human head and neck squamous cell cancer); for A6 also the CRBN CRISPR knockout CAL33
Procedure: USP7 protein levels were detected by immunoblots. […] USP7 protein levels were measured by immunoblots. […] USP7 protein levels were detected by immunoblots, then quantified by ImageJ after normalized to internal control β-actin. Half maximal degradation concentration (DC50) was calculated by Graphpad Prism.
To investigate the mechanism of action of PU7-1, CRBN knockout (KO) CAL33 cell line was generated using CRISPR-Cas9 technology. Control and CRBN KO cells were treated with 2.5 μM of PU7-1 for 72 h and then the expression levels of USP7 and CRBN proteins were detected by western blot analysis. CRBN protein was undetectable in the KO cells (FIG. 3H). […] CAL33 cells were first treated with 5 μM of PU7-1 for 48 h to degrade the USP7 proteins, and then treated with 5 μM of MLN4924, 25 μM of Chloroquine (CLQ) or 5 μM of MG132 for additional 24 h.

FOXM1 = assay: Block of PU7-1-induced FOXM1 destabilization by pathway inhibitors in CAL33; type: cell-based, human; conditions: CAL33, 10 μM PU7-1 72 h; 1 μM MLN4924 or BafA1 24 h, 10 μM MG132 6 h
USP7 [2] = target: T1, USP7; assay: USP7 protein degradation by western blot in CAL33 cells; type: cell-based; conditions: CAL33 and A549 cells, 2.5 μM, 48 h
Procedure: To specifically degrade USP7, a set of 66 PROTAC compounds were designed and synthesized that contain an USP7 specific binding moiety XL177A and an E3 ubiquitin ligase (CRBN or VHL) binding moiety connected by different linkers. All putative USP7 PROTACs were used to treat CAL33 cells that express high levels of USP7 protein, and then the USP7 protein levels were determined by western blot (FIGS. 10A and 10B). Through initial screening, PU7-1 was identified as a potential USP7 degrader (FIG. 3A and FIG. 10). […] The effect of PU7-1 was also tested in several human cancer cells harboring wild-type p53. […] In addition, to exclude the possibility that PU7-1 affects the USP7 protein levels by regulating its transcription, a quantitative real-time PCR was performed in CAL33 treated with PU7-1 for 72 h. […]
Cells were lysed in FLAG lysis buffer (50 mM Tris-HCl (pH 7.3), 137 mM NaCl, 10 mM NaF, 0.5 mM EDTA, 1% Triton X-100, 0.2% Sarkosyl, 10% glycerol) freshly supplemented with protease inhibitor cocktail. Protein concentration was determined by the Bio-Rad protein assay. […] Membranes were blocked with 5% (w/v) nonfat milk in Tris-buffered saline with Tween-20 (TBST), incubated with primary antibodies, then secondary HRP-conjugated antibodies (Jackson ImmunoResearch, 1:10000 dilution) and detected on autoradiographic films after incubating with ECL (Thermo Scientific, #32106). […]

T1 sequence (Q93009 whole entry): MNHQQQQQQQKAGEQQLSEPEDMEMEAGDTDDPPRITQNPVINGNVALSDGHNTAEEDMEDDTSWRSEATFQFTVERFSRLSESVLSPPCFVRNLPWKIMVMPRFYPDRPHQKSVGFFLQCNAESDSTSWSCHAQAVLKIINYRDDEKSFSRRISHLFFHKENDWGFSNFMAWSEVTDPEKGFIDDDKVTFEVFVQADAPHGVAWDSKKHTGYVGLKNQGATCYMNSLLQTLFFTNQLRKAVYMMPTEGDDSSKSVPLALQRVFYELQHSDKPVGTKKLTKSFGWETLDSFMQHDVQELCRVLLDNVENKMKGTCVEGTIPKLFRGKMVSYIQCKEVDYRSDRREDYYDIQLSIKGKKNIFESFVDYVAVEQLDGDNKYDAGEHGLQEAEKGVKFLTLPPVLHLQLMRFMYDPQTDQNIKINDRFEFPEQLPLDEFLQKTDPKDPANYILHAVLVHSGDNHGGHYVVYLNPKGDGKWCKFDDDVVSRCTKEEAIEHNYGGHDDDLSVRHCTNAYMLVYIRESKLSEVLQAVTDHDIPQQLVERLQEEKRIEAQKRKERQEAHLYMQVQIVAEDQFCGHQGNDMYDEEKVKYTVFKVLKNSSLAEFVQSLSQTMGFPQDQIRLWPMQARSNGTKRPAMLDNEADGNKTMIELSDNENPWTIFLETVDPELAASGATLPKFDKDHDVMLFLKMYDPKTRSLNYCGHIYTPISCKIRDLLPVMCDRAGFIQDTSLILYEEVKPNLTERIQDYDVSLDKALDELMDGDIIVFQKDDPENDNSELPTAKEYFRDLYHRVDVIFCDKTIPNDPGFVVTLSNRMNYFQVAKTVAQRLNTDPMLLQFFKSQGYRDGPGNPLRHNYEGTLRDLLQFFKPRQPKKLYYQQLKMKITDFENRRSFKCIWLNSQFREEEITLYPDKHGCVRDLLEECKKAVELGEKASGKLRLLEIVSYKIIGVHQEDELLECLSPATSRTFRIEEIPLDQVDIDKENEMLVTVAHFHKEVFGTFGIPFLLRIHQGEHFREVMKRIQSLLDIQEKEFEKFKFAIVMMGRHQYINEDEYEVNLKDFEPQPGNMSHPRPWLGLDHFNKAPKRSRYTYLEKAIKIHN

effect on USP7 degradation mediated by PU7-1 (USP7 [1]) | Structure (SMILES) | block of PU7-1-induced destabilization of FOXM1 (FOXM1) | capability to degrade USP7 protein (USP7 [2])
no effect | CCN(CC)CCCC(C)Nc1ccnc2cc(Cl)ccc12 (stereo not drawn) [Chloroquine] | – | –
significantly rescued | NS(=O)(=O)OC[C@@H]1C[C@@H](n2ccc3c(N[C@H]4CCc5ccccc54)ncnc32)C[C@@H]1O [MLN4924] | readily blocked | –
– | CN1C(=O)CCC(N2Cc3c(CCCCCN4CCN(CCC(=O)Nc5ccc6c(=O)n(CC7(O)CCN(C(=O)C(CCCNC(=O)c8ccc9c(Cl)c%10c(nc9c8)CCCC%10)Cc8ccccc8)CC7)cnc6c5)CC4)cccc3C2=O)C1=O (stereo not drawn) [PU7-1N, N-(4-benzyl-5-(4-hydroxy-4-((7-(3-(4-(5-(2-(1-methyl-2,6-dioxopiperidin-3-yl)-1-oxoisoindolin-4-yl)pentyl)piperazin-1-yl)propanamido)-4-oxoquinazolin-3 (4H)-yl)methyl)piperidin-1-yl)-5-oxopentyl)-9-chloro-5,6,7,8-tetrahydroacridine-3-carboxamide] | – | defective capability to degrade USP7 protein

Structure (SMILES) | effect on USP7 degradation mediated by PU7-1 (USP7 [1]) | block of PU7-1-induced destabilization of FOXM1 (FOXM1) | capability to degrade USP7 protein (USP7 [2])
CC(C)C[C@@H](C=O)NC(=O)[C@H](CC(C)C)NC(=O)[C@H](CC(C)C)NC(=O)OCc1ccccc1 [MG132] (Cbz-Leu-Leu-Leu-aldehyde) | significantly rescued | readily blocked | –
